In EP0153845A2, “CRF analogs” (THE SALK INSTITUTE FOR BIOLOGICAL STUDIES, priority 1984, dated 1985):
Square brackets hold non-standard residues; d marks the D form. Peptide text beside a SMILES is read from it. Nle = CCCC[C@H](N)C(=O)O; Orn = NCCC[C@H](N)C(=O)O

What was measured:
[1] = target: T1, cultured rat pituitary cells (Rattus norvegicus, UniProt P35353); test: Stimulation of ACTH and β-endorphin secretion by cultured rat pituitary cells (general procedure of Example III); format: cell-based; conditions: general procedure of Example III
T1 sequence (P35353 24-415): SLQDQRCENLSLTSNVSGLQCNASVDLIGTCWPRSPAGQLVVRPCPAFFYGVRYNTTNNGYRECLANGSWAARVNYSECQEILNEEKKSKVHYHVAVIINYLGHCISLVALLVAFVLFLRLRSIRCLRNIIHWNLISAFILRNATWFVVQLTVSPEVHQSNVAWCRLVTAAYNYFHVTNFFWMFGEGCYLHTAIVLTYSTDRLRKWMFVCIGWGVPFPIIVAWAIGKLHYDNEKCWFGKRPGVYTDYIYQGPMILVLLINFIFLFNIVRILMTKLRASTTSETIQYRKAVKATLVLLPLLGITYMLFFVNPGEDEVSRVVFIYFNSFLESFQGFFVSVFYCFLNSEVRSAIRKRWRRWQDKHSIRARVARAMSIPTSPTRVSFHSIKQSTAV
Method: The synthetic peptide AHC and oCRF were examined for their effects on the secretion of ACTH and B-endorphin in vitro and was also in vivo. The potency of synthetic oCRF to stimulate the secretion of ACTH and β-endorphin by cultured rat pituitary cells was measured using the procedure as generally set forth in Endocrinology, 91, 562 (1972). […] In.vivo testing is carried out using the general procedure set forth in C. Rivier et al., Science, 218, 377 (1982).

[2] = Lowering of blood pressure, in vivo testing by the general procedure of Example III

Row | Molecule | secretion of ACTH and β-END-LI [1] | lowering of blood pressure [2]
1 | CC[C@H](C)[C@H](NC(=O)[C@H](CCC(=O)O)NC(=O)[C@H](CC(=O)O)NC(=O)[C@H](CCSC)NC(=O)[C@H](CC(C)C)NC(=O)[C@H](CCCCNC(=N)N)NC(=O)[C@H](CCCNC(=N)N)NC(=O)[C@H](CC(N)=O)NC(=O)[C@H](CC(N)=O)NC(=O)[C@H](C)NC(=O)[C@H](C)NC(=O)[C@H](CCC(N)=O)NC(=O)[C@H](CCC(N)=O)NC(=O)[C@H](CCCCN)NC(=O)[C@H](CC(C)C)NC(=O)[C@H](CCCCN)NC(=O)[C@H](CCC(=O)O)NC(=O)[C@H](CCC(N)=O)NC(=O)[C@H](CCCCN)NC(=O)[C@H](CCC(=O)O)NC(=O)[C@@H](NC(=O)[C@H](CCC(=O)O)NC(=O)[C@@H](NC(=O)[C@H](CCSC)NC(=O)[C@H](CCCCN)NC(=O)[C@H](CCCNC(=N)N)NC(=O)[C@H](CC(C)C)NC(=O)[C@H](CC(C)C)NC(=O)[C@H](CCC(=O)O)NC(=O)[C@H](CC(C)C)NC(=O)[C@H](CO)NC(=O)[C@H](CC(C)C)NC(=O)[C@H](CC(=O)O)NC(=O)[C@@H](NC(=O)[C@H](CO)NC(=O)[C@@H](NC(=O)[C@@H]1CCCN1C(=O)[C@@H]1CCCN1C(=O)CNC(=O)[C@@H]1CCC(=O)N1)[C@@H](C)CC)[C@@H](C)CC)[C@@H](C)CC)[C@@H](C)CC)C(N)=O [[Leu^26, Har^35, Met, Glu^39]-sauvagine] | stimulates | very significant lowering of blood pressure
2 | CCCC[C@H](NC(=O)[C@H](CCC(=O)O)NC(=O)[C@H](CC(C)C)NC(=O)[C@@H](NC(=O)[C@H](CCC(=O)O)NC(=O)[C@H](CCCNC(=N)N)NC(=O)[C@H](CC(C)C)NC(=O)[C@H](CC(C)C)NC(=O)[C@H](Cc1c[nH]cn1)NC(=O)[C@H](Cc1ccccc1)NC(=O)[C@@H](NC(=O)[C@H](CC(C)C)NC(=O)[C@H](CC(=O)O)NC(=O)[C@H](CC(C)C)NC(=O)[C@H](CO)NC(=O)[C@@H](NC(=O)[C@@H]1CCCN1C(=O)[C@H]1CCCN1)[C@@H](C)CC)[C@@H](C)O)C(C)C)C(=O)N[C@@H](C)C(=O)N[C@@H](CCCNC(=N)N)C(=O)N[C@@H](C)C(=O)N[C@@H](CCC(=O)O)C(=O)N[C@@H](CCC(N)=O)C(=O)N[C@@H](CC(C)C)C(=O)N[C@@H](C)C(=O)N[C@@H](CCC(N)=O)C(=O)N[C@@H](CCC(N)=O)C(=O)N[C@@H](C)C(=O)N[C@@H](Cc1c[nH]cn1)C(=O)N[C@@H](CO)C(=O)N[C@@H](CC(N)=O)C(=O)N[C@@H](CCCNC(=N)N)C(=O)N[C@@H](CCCCN)C(=O)N[C@@H](CC(C)C)C(=O)N[C@@H](CCSC)C(=O)N[C@@H](CCC(=O)O)C(=O)N[C@H](C(=O)N[C@H](C(N)=O)[C@@H](C)CC)[C@@H](C)CC [[D-Pro^4, Nle^21,38]-rCRF(4-41)] (H-[dP]PISLDLTFHLLREVLE[Nle]ARAEQLAQQAHSNRKLMEII-NH2) | stimulates the secretion of ACTH and B-END-LI in an amount greater than oCRF | very significant lowering of blood pressure
3 | H-SEEPPISLDLTLELLREMLEME[Orn]AEKEAEQAALNRLLLEEA-NH2 | stimulates | very significant lowering of blood pressure
4 | CCCC[C@H](NC(=O)[C@H](CCC(=O)O)NC(=O)[C@H](CC(C)C)NC(=O)[C@H](CCCC)NC(=O)[C@H](CCC(=O)O)NC(=O)[C@H](CCCNC(=N)N)NC(=O)[C@H](CC(C)C)NC(=O)[C@H](CC(C)C)NC(=O)[C@H](Cc1c[nH]cn1)NC(=O)[C@H](Cc1ccccc1)NC(=O)[C@@H](NC(=O)[C@H](CC(C)C)NC(=O)[C@H](CC(=O)O)NC(=O)[C@H](CC(C)C)NC(=O)[C@H](CO)NC(=O)[C@@H](NC(=O)[C@@H]1CCCN1)[C@@H](C)CC)[C@@H](C)O)C(=O)N[C@@H](C)C(=O)N[C@@H](CCCNC(=N)N)C(=O)N[C@@H](C)C(=O)N[C@@H](CCC(=O)O)C(=O)N[C@@H](CCC(N)=O)C(=O)N[C@@H](CCC(=O)O)C(=O)N[C@@H](C)C(=O)N[C@@H](CCC(=O)O)C(=O)N[C@@H](CCC(N)=O)C(=O)N[C@@H](C)C(=O)N[C@@H](C)C(=O)N[C@@H](CC(C)C)C(=O)N[C@@H](CC(N)=O)C(=O)N[C@@H](CCCNC(=N)N)C(=O)N[C@@H](CC(C)C)C(=O)N[C@@H](CC(C)C)C(=O)N[C@@H](CC(C)C)C(=O)N[C@@H](CCC(=O)O)C(=O)N[C@@H](CCC(=O)O)C(=O)N[C@@H](C)C(N)=O [[Nle^18,21, Arg^23]-AHC(5-41)] (H-PISLDLTFHLLRE[Nle]LE[Nle]ARAEQEAEQAALNRLLLEEA-NH2) | stimulates | very significant lowering of blood pressure
5 | CCCC[C@H](NC(=O)[C@H](CCC(=O)O)NC(=O)[C@H](CC(C)C)NC(=O)[C@H](CCCC)NC(=O)[C@H](CCC(=O)O)NC(=O)[C@H](CCCNC(=N)N)NC(=O)[C@H](CC(C)C)NC(=O)[C@H](CC(C)C)NC(=O)[C@H](Cc1c[nH]cn1)NC(=O)[C@H](Cc1ccccc1)NC(=O)[C@@H](NC(=O)[C@H](CC(C)C)NC(=O)[C@H](CC(=O)O)NC(=O)[C@H](CC(C)C)NC(=O)[C@H](CO)NC(=O)[C@@H](NC(=O)[C@@H]1CCCN1C(=O)[C@@H]1CCCN1C(=O)[C@H](N)Cc1ccc(O)cc1)[C@@H](C)CC)[C@@H](C)O)C(=O)N[C@@H](C)C(=O)N[C@@H](CCCCN)C(=O)N[C@@H](C)C(=O)N[C@@H](CCC(=O)O)C(=O)N[C@@H](CCC(N)=O)C(=O)N[C@@H](CCC(=O)O)C(=O)N[C@@H](C)C(=O)N[C@@H](CCC(=O)O)C(=O)N[C@@H](CCC(N)=O)C(=O)N[C@@H](C)C(=O)N[C@@H](C)C(=O)N[C@@H](CC(C)C)C(=O)N[C@@H](CC(N)=O)C(=O)N[C@@H](CCCNC(=N)N)C(=O)N[C@@H](CC(C)C)C(=O)N[C@@H](CC(C)C)C(=O)N[C@@H](CC(C)C)C(=O)N[C@@H](CCC(=O)O)C(=O)N[C@@H](CCC(=O)O)C(=O)N[C@@H](C)C(N)=O [[D-Tyr^3, Nle^18,21)-AHC(3-41)] (H-[dY]PPISLDLTFHLLRE[Nle]LE[Nle]AKAEQEAEQAALNRLLLEEA-NH2) | stimulates | very significant lowering of blood pressure
6 | H-SQEPPISLDLTFHLLREVLE[Nle]TKADQLAEQAHSNRKLLDIA-NH2 [[Nle^21,Glu^29]-oCRF] | stimulates | very significant lowering of blood pressure
7 | CC[C@H](C)[C@H](NC(=O)[C@@H](NC(=O)[C@H](CC(=O)O)NC(=O)[C@H](CC(C)C)NC(=O)[C@H](CC(C)C)NC(=O)[C@H](CC(C)C)NC(=O)[C@H](CCCNC(=N)N)NC(=O)[C@H](CC(N)=O)NC(=O)[C@H](CC(N)=O)NC(=O)[C@H](C)NC(=O)[C@H](C)NC(=O)[C@H](CCC(N)=O)NC(=O)[C@H](CCC(=O)O)NC(=O)[C@H](CCCCN)NC(=O)[C@H](CCC(=O)O)NC(=O)[C@H](CCCCN)NC(=O)[C@H](CCC(=O)O)NC(=O)[C@H](CCC(N)=O)NC(=O)[C@H](CCCCN)NC(=O)[C@H](CCCNC(=N)N)NC(=O)[C@H](C)NC(=O)[C@H](CCC(=O)O)NC(=O)[C@@H](NC(=O)[C@H](CCSC)NC(=O)[C@H](CCCCN)NC(=O)[C@H](CCCNC(=N)N)NC(=O)[C@H](CC(C)C)NC(=O)[C@H](CC(C)C)NC(=O)[C@H](CCC(=O)O)NC(=O)[C@H](CC(C)C)NC(=O)[C@H](CO)NC(=O)[C@H](CC(C)C)NC(=O)[C@H](CC(=O)O)NC(=O)[C@@H](NC(=O)[C@H](CO)NC(=O)[C@@H](NC(=O)[C@@H]1CCCN1C(=O)[C@@H]1CCCN1C(=O)CNC(=O)[C@@H]1CCC(=O)N1)[C@@H](C)CC)[C@@H](C)CC)[C@@H](C)CC)[C@@H](C)CC)C(N)=O | stimulates | very significant lowering of blood pressure
8 | H-SEEPPIS[Nle]DLSFHLLREVLEMARAEQLAQQAHLNRKLMEEI-NH2 [[Nle^8, Ser^11, Leu^33, Glu^40]-rCRF] | stimulates | very significant lowering of blood pressure
9 | H-PPISLDLTFHLLREVLEMARAEQLAQQAHLNRKLMEEI-NH2 | stimulates | very significant lowering of blood pressure
10 | Ac-GEEPPISLDLTFHLLREVLEMARAEQLAQQAHLNRKLMEEI-NH2 [[Acetyl-Gly^1, Leu^33, Glu^40]-rCRF] | stimulates | very significant lowering of blood pressure
11 | H-PPISIDLSLELLRKMIEIAKQEKEKEQAANNRLLMDTI-NH2 | stimulates | very significant lowering of blood pressure
